{"source": "patent US11980616B2", "about": "“Treating liver disease by selectively eliminating senescent cells” (Buck Institute for Research on Aging, priority 2014, dated 2024)", "key": {"[1]": {"tested_on": "doxorubicin-treated (Doxo) senescent aortic endothelial cells (Endo Aort)", "assay": "Cell count survival assay, doxorubicin-induced senescent aortic endothelial cells", "assay_type": "cell-based", "details": "Sen(Doxo) aortic endothelial cells; 11 days", "method": "(§1) Foreskin fibroblast cell lines HCA2 and BJ, lung fibroblast cell line IMR90, and mouse embryonic fibroblasts were seeded in six-well plates and induced to senesce with 10 Gy of ionizing radiation (IR) or a 24 hr treatment with doxorubicin (Doxo). Senescent phenotype was allowed to develop for at least 7 days, at which point a cell count was made to determine the baseline number of cells. Nutlin-3a treatment was then initiated for a period of at least 9 days. Media alone or media with drug as appropriate was refreshed at least every three days. At the end of the assay time period, cells are counted. Each condition was seeded in three plate wells and counted independently. Initial cell count serves as a control to determine the induction of senescence, as compared to the last day count without nutlin treatment. Initial non-senescent cell count serves as a proxy to determine Nutlin-3a toxicity.\nForeskin fibroblasts (HCA2) and aortic endothelial cells (Endo Aort) were treated with doxorubicin (250 nM) for one day (24 hours) to induce senescence (see FIG. 1). Eight days following doxorubicin treatment, Nutlin-3a treatment was initiated. HCA2 cells were exposed to Nutlin-3a for 9 days, and aortic endothelial cells were exposed to Nutlin-3a for 11 days. […] Percent survival was calculated as [cell count on the last day of Nutlin-3a treatment/initial cell count on first day of Nutlin-3a treatment]."}, "[2]": {"tested_on": "non-senescent foreskin fibroblasts (Non Sen HCA2)", "assay": "Cell count toxicity assay, non-senescent HCA2", "assay_type": "cell-based", "details": "0, 2.5, 10 μM, 9 days", "method": "as §1\nNon-senescent foreskin fibroblasts (HCA2), lung fibroblasts (IMR90), and mouse embryonic fibroblasts (MEF) were treated with varying concentrations (0, 2.5 μM, and 10 μM) of Nutlin-3a for a period of 9 days to assess Nutlin-3a toxicity. Cell counts were taken at the start (NS start) and end of Nutlin-3a treatment. The difference between counts of cells not treated with Nutlin-3a on day 9 (NS 0) and cell counts determined at day zero (NS start) reflects the cell growth over the indicated time period. […]"}, "[3]": {"tested_on": "non-senescent aortic endothelial (Non Sen Endo Aort) cells", "assay": "Cell count toxicity assay, non-senescent aortic endothelial cells", "assay_type": "cell-based", "details": "0, 2.5, 10 μM, 11 days", "method": "Non-senescent aortic endothelial (Endo Aort) cells and pre-adipocytes (Pread) were also treated with varying concentrations (0, 2.5 μM, and 10 μM) of Nutlin-3a for a period of 11 days to assess Nutlin-3a toxicity, as described above. Cell counts were taken at the start at Day 0 (NS start) and at the end of Nutlin-3a treatment (NS 0). The difference between counts of cells not treated with Nutlin-3a on day 11 (NS 0) and cell counts from NS start reflects the cell growth over the indicated time period. […] Decrease in apparent survival between NS 0 and NS 2.5 and between NS 0 and NS 10 reflects a decrease in cell growth."}, "[4]": {"tested_on": "DNA damage response proteins in senescent IMR90 cells", "assay": "Immunoblot of DNA damage response proteins in irradiated senescent IMR90 cells", "assay_type": "cell-based, human", "method": "Primary human fibroblast (IMR90) cells were induced to senesce by applying 10 Gy of irradiation. Seven days after irradiation (Day 0), cells were treated with 10 μM Nutlin-3a or vehicle (DMSO) for nine days (Day 9). The drug or vehicle was refreshed every three days. Drug/vehicle was removed at Day 9 and the cells were cultured for an additional six days in media without drug or DMSO, changing media every three days. Cells were collected at Day 0 (non-senescent cells), Day 9, Day 12, and Day 15, and protein extracted and processed for immunoblotting (Western blotting). Two samples were processed at each time point; the results are provided for one sample in FIG. 14."}, "[5]": {"tested_on": "LDLR-/- mice fed a HFD", "assay": "Atherosclerosis model, LDLR-/- mice fed a high fat diet", "assay_type": "in vivo, mouse", "source_text": "Schematics of two atherosclerosis mouse models are presented in FIGS. 43A-B. The study illustrated in FIG. 43A assessed the extent to which clearance of senescent cells from plaques in LDLR^−/− mice with Nutlin-3A reduces plaque load. Two groups of LDLR^−/− mice (10 weeks) are fed a high fat diet (HFD) (Harlan Teklad TD.88137) having 42% calories from fat, beginning at Week 0 and throughout the study. Two groups of LDLR^−/− mice (10 weeks) are fed normal chow (−HFD). From weeks 0-2, one group of HFD mice and −HFD mice are treated with Nutlin-3A (25 mg/kg, intraperitoneally). One treatment cycle is 14 days treatment, 14 days off. Vehicle is administered to one group of HFD mice and one group of −HFD mice. At week 4 (timepoint 1), one group of mice are sacrificed and to assess presence of senescent cells in the plaques. For the some of the remaining mice, Nutlin-3A and vehicle administration is repeated from weeks 4-6. At week 8 (timepoint 2), the mice are sacrificed and to assess presence of senescent cells in the plaques. The remaining mice are treated with Nutlin-3A or vehicle from weeks 8-10. At week 12 (timepoint 3), the mice are sacrificed and to assess the level of plaque and the number of senescent cells in the plaques.\nPlasma lipid levels were measured in LDLR^−/− mice fed a HFD and treated with Nutlin-3A or vehicle at timepoint 1 as compared with mice fed a −HFD (n=3 per group). Plasma was collected mid-afternoon and analyzed for circulating lipids and lipoproteins.\nAt the end of timepoint 1, LDLR^−/− mice fed a HFD and treated with Nutlin-3A or vehicle were sacrificed (n=3, all groups), and the aortic arches were dissected for RT-PCR analysis of SASP factors and senescent cell markers. Values were normalized to GAPDH and expressed as fold-change versus age-matched, vehicle-treated LDLR^−/− mice on a normal diet.\nAt the end of timepoint 2, LDLR^−/− mice fed a HFD and treated with Nutlin-3A or vehicle (n=3 for all groups) were sacrificed, and aortic arches were dissected for RT-PCR analysis of SASP factors and senescent cell markers. Values were normalized to GAPDH and expressed as fold-change versus age-matched, vehicle-treated LDLR^−/− mice on a normal diet.\nAt the end of timepoint 3, LDLR^−/− mice fed a HFD and treated with Nutlin-3A or vehicle (n=3 for all groups) were sacrificed, and aortas were dissected and stained with Sudan IV to detect the presence of lipid. Body composition of the mice was analyzed by MRI, and circulating blood cells were counted by Hemavet. […] As shown in FIGS. 48A-B, the platelet and lymphocyte counts were equivalent between the Nutlin-3A and vehicle treated mice."}, "[6]": {"details": "10 μM, decreased when the drug was removed"}}, "data": [{"compound": "COc1ccc(C2=N[C@@H](c3ccc(Cl)cc3)[C@@H](c3ccc(Cl)cc3)N2C(=O)N2CCNC(=O)C2)c(OC(C)C)c1", "note": "[Nutlin-3a]", "values": [{"measurement": "Percent survival", "setting": "[1]", "value": "sensitive"}, {"measurement": "Proliferation (percent growth)", "setting": "[2]", "value": "reduces proliferation"}, {"measurement": "Toxicity (cell number vs starting level)", "setting": "[2]", "value": "non-toxic"}, {"measurement": "Proliferation (percent growth)", "setting": "[3]", "value": "reduces proliferation"}, {"measurement": "Toxicity (cell number vs starting level)", "setting": "[3]", "value": "non-toxic"}, {"measurement": "Phosphorylation of H2AX (γH2AX)", "setting": "[4]; 10 μM, after treatment and after drug removal", "value": "declining levels of phosphorylation"}, {"measurement": "Phosphorylation of the kinase ATM (pATM S1981)", "setting": "[4]; 10 μM, also after drug removal", "value": "lower"}, {"measurement": "Level of MDM2", "setting": "[4]; [6]", "value": "elevated"}, {"measurement": "Level of p21", "setting": "[4]; [6]", "value": "elevated"}, {"measurement": "Level of p53", "setting": "[4]; [6]", "value": "elevated"}, {"measurement": "Level of IkBa", "setting": "[4]; after drug is removed", "value": "approaches the level of IkBa in non-senescent cells"}, {"measurement": "Expression of SASP factors and senescent cell markers in aortic arch (RT-PCR)", "setting": "[5]; 25 mg/kg i.p., after 1 treatment cycle, MMP3, MMP13, PAI1, p21, IGFBP2, IL-1A, IL-1B", "value": "reduced expression of several SASP factors and senescent cell markers"}, {"measurement": "Expression of SASP factors and senescent cell markers in aortic arch (RT-PCR)", "setting": "[5]; 25 mg/kg i.p., multiple (two) treatment cycles", "value": "reduced expression of most markers"}, {"measurement": "Reduction of plaques in the descending aorta (Sudan IV)", "setting": "[5]; 25 mg/kg i.p., three treatment cycles, week 12", "value": "~45", "unit": "%"}, {"measurement": "Lymphocyte count vs vehicle", "setting": "[5]; three treatment cycles", "value": "equivalent"}, {"measurement": "Platelet count vs vehicle", "setting": "[5]; three treatment cycles", "value": "equivalent"}]}]}
